Experimental data from patent US9750817B2, “Amphotericin B derivatives” (priority 2015, dated 2017).
Converted amounts (≈) assume the structure as drawn. “And” between values parts separate entries of the source, which are not always exact repeats. Equal values may be shown once.

Tests used:
[1] = Solubility in double-distilled water; format: physicochemical; conditions: double-distilled water
Procedure: Physical characteristics of AMB derivatives and of AMB were tested, including solubility.

[2] = system: ICR mice; assay: In vivo toxicity, intravenous injection; conditions: for LD50 / Maximum Dose: tail vein
Procedure: In-vivo toxicity was determined in mice using 6 week old female ICR mice (n=6). Different concentrations of each formulation were injected intravenously through the tail vein, 0.2 ml per mouse, until death was observed. PAD-AMB conjugates were prepared in sterile saline solution and were filtered through 0.45-micrometer pore-size cellulose acetate sterile filters prior to injection.

[3] = system: A. fumigatus (Af 293); assay: MIC of compound 6, AMB and FMOC-6; format: cell-based, Aspergillus fumigatus
Procedure: (§1) Efficacy was evaluated by measuring minimum inhibitory concentration (MIC) and minimum fungicidal concentration (MFC) values for fungal isolates. Testing of isolates was performed according to the Clinical & Laboratory Standards Institute (CLSI) method. (CLSI. 2008. M27-A3 Reference method for broth dilution antifungal susceptibility testing of yeasts; Approved Standard—3rd edition. Clinical and Laboratory Standards Institute, Wayne). RPMI MOPS media was used throughout the experiment as growth and dilution media. Spores and yeast cells were harvested in 0.05% Tween from 24-48 h and cultures were grown in rich yeast extract-agar-glucose (YAG) medium (composed of: 0.5% w/v yeast extract, 1% w/v glucose, 10 millimolar (mM) MgCl2, supplemented with 0.1% v/v trace elements solution, and 0.2% v/v vitamin mix). The spores and the yeast cells were counted and diluted to a final concentration of 2.5×10^4 per ml. A stock solution of 5 mg/ml was prepared in dimethylsulfoxide for free AMB. Compounds 4 and 6 were prepared in sterile saline. Double dilutions of each drug were performed in 100 μL volume of RPMI-MOPS in 96 well plates beginning with a final concentration of 32 micrograms (μg)/well of each drug to 0.06 μg/well. 2500 spores or yeast cells were added to each well. Results were recorded 48 h post incubation at 37° C. […] The MFC was defined as the lowest drug concentration that yielded three or fewer colonies (i.e. 99% of the inoculum was killed).
In addition, the amine protected equivalent of compound 6 in which the amine of compound 6 was protected with an FMOC group was tested (designated FMOC-6) to determine MIC versus AMB and versus compound 6 against A. fumigatus (Af 293) and C. albicans (CBS562).

[4] = Pharmacokinetics upon single intravenous administration; format: in vivo, mice; set-up: ke: unit not given here; conditions: mouse serum, IV bolus; AMB 1 mg/kg, Compound 6 5 mg/kg
Procedure: AMB and Compound 6 solution in saline were administrated intravenously (IV) to groups of mice at a dose of 1 and 5 mg/kg body weight, respectively. The mice received an IV bolus via the tail vein. Mice were bled over a 48 h period at the following time points: 0, 5, 15 and 30 minutes and 1, 2, 6, 12, 24 and 48 h post-dosing (3 mice per time point). Bleeding was conducted using a facial vein technique into sterile Eppendorf tubes. Whole blood samples of 150 μl were collected at each time point, stored for 30 min at room temperature for clotting and centrifuged at 10,000 RPM for 10 minutes until serum separated. The serum samples were stored at −20° C.
The concentration of Compound 6 in the serum was measured by HPLC as follows: UltiMate® 3000 system (Dionex) was used equipped with 3000 pump, VWD-3000 UV-Vis detector and Chromeleon® 6.80 software. The column used was LiChroCART® 250×4.6 mm Purospher® STAR (5 μm) C-18 RP (reverse phase). Chromatographic conditions: flow: 1.0 ml/min, linear water (buffer A)/acetonitrile (ACN) (buffer B) gradient (buffer A—100% water, 0.1% TFA; buffer B—100% ACN, 0.1% TFA).
200 μl of methanol was added to 100 μl of serum sample and vortexed for 20 seconds, stored for 30 min at room temperature (22° C.), then centrifuged at 14,000 RPM for 10 minutes. The supernatant was filtered through a 0.22 μm filter and aliquots of 100 μl were analyzed by HPLC. AMB and Compound 6 were detected at a wavelength of 407 nm.
The pharmacokinetic graphs depicting drug concentration over time are shown in FIGS. 8A-8B (over 24 hours and 120 minutes respectively) and the calculated PK values are shown in Table 6 below.

[5] = system: C. albicans CBS 562; assay: In-vitro time-kill study; format: cell-based, Candida albicans; conditions: 2-fold above the MIC, over 2 hours, 30° C.
Procedure: In time-kill studies, C. albicans CBS 562 was grown overnight from a single colony in 50 ml of liquid YPD medium (composed of 1% (w/v) yeast extract, Difco, 2% w/v peptone, Difco, and 2% w/v dextrose, Merck) at 30° C. On the next day, the starter was diluted 1:100 in the same medium and grown to an optical density at 600 nanometers (OD600 nm) of 0.5-0.6. Then, cells were counted and diluted to 10^6 cells/ml in YPD. Compound 6 and amphotericin B (AMB) were added at concentrations 2-fold above the MIC determined for this strain (2 and 0.5 μg/ml, respectively) and shaken at 30° C. At different time points (0, 15 min, 30 min, 1 h, 2 h) samples were removed, diluted and plated on YPD agar (2% agar) plates. Colonies were counted after incubation for 24 h at 30° C. Control measurements included untreated C. albicans cells and cells treated with AMB. All time-kill curve studies were conducted in duplicate and in three independent experiments.

[6] = system: Aspergillus flavus; assay: MIC/MFC broth dilution (CLSI), clinical isolates; format: cell-based; conditions: A. Flavus, 3 isolates, 48 h at 37° C.
Procedure: (§2) Isolates of Aspergillus fumigatus, Aspergillus flavus, Aspergillus terreus Aspergillus niger, Rhizopus oryzae, Candida albicans and Candida krusei were isolated from patients in Israeli hospitals and used for in vitro efficacy studies.
as §1

[7] = system: Aspergillus fumigatus; assay: MIC/MFC broth dilution (CLSI), clinical isolates; format: cell-based; conditions: A. fumigatus, 4 isolates, 48 h at 37° C.
Procedure: as §2, §1

[8] = system: Candida krusei; assay: MIC/MFC broth dilution (CLSI), clinical isolates; format: cell-based; conditions: C. krusei, 3 isolates, 48 h at 37° C.
Procedure: as §2, §1

[9] = system: Aspergillus niger; assay: MIC/MFC broth dilution (CLSI), clinical isolates; format: cell-based; conditions: A. niger, 3 isolates, 48 h at 37° C.
Procedure: as §2, §1

[10] = system: Candida albicans; assay: MIC/MFC broth dilution (CLSI), clinical isolates; format: cell-based; conditions: C. albicans, 2 isolates, 48 h at 37° C.
Procedure: as §2, §1

[11] = system: Aspergillus terreus; assay: MIC/MFC broth dilution (CLSI), clinical isolates; format: cell-based; conditions: listed as printed C. terreus, 1 isolate, 48 h at 37° C.
Procedure: as §2, §1

SMILES | Solubility [1] | LD50 ([2]; female ICR mice, intravenous) | Maximum Dose ([2]; female ICR mice, intravenous) | MIC [3] | AUC0-24 [4] | CL [4] | MRT0-24 [4] | Vd [4] | t1/2 [4] | time-kill activity (fungal presence) [5] | MFC [6] | MIC [6] | MFC [7] | MIC [7] | MFC [8] | MIC [8] | MFC [9] | MIC [9] | MFC [10] | MIC [10] | also measured
C[C@@H]1[C@H](O)[C@@H](C)/C=C/C=C/C=C/C=C/C=C/C=C/C=C/[C@H](O[C@@H]2O[C@H](C)[C@@H](O)[C@H](N)[C@@H]2O)C[C@@H]2O[C@](O)(C[C@@H](O)C[C@@H](O)[C@H](O)CC[C@@H](O)C[C@@H](O)CC(=O)O[C@H]1C)C[C@H](O)[C@H]2C(=O)O [AMB, Amphotericin B] | <1 µg/mL | 1.2 mg/kg | 1.1 mg/kg | 0.5 µg/mL | 63.983 µg·h/mL | 0.250 mL/h | 9.664 h | 0.006 L | 15.96 h and 15.964 h | reducing the fungal presence | 0.5 to 1 µg/mL | 0.5 to 1 µg/mL | 0.5 to 4 µg/mL | 0.25 to 1 µg/mL | 1 to 2 µg/mL | 0.5 µg/mL (≈ 0.541 µM) | 0.5 to 1 µg/mL | 0.5 to 1 µg/mL | 0.5 µg/mL (≈ 0.541 µM) | 0.25 µg/mL (≈ 0.271 µM) | outcome at twice the LD50 ([2]; mice injected at twice the LD50): die instantaneously; maximum tolerated dose ([2]; mouse): about 1 mg/kg body weight per day; MFC [11]: 4 µg/mL (≈ 4.33 µM); MIC [11]: 2 µg/mL (≈ 2.16 µM)
COC(=O)C1C(O)CC2(O)CC(O)CC(O)C(O)CCC(O)CC(O)CC(=O)OC(C)C(C)C(O)C(C)C=CC=CC=CC=CC=CC=CC=CC(OC3OC(C)C(O)C(NC(=O)CCOCCOCCOCCOCCOCCOCCOCCOCCN)C3O)CC1O2 (stereo not shown) [Compound 6, amphotericin B amide, methyl ester-PEG(8)-amine] | 700 µg/mL (≈ 514 µM) | not reached | 42 mg/kg | 2 µg/mL | 421.234 µg·h/mL | 0.508 mL/h | 5.431 h | 0.002 L | 3.153 h | reducing the fungal presence | 2 to 4 µg/mL | 2 to 4 µg/mL | 2 to 8 µg/mL | 1 to 8 µg/mL | 4 µg/mL (≈ 2.94 µM) | 2 µg/mL (≈ 1.47 µM) | 2 µg/mL (≈ 1.47 µM) | 2 µg/mL (≈ 1.47 µM) | 2 µg/mL (≈ 1.47 µM) | 1 µg/mL (≈ 0.734 µM) | mouse LD50 fold higher than AMB ([2]; female ICR mice, intravenous): ≥ 40 fold; signs of toxicity at the highest injectable doses ([2]; female ICR mice, intravenous): did not show any signs of toxicity; ke [4]: 0.220; MFC [11]: 16 µg/mL (≈ 11.8 µM); MIC [11]: 16 µg/mL (≈ 11.8 µM)
